Patent US8377691B2 (priority 2006, dated 2013)
Entries after “also recorded” stand apart in the source; their conditions may differ.

Test system: A/M2 VN1194
Assay type: biochemical

Row | Structure (SMILES) | H+ transport across VLP membranes (fluorescence)
1 | NC12CC3CC(CC(C3)C1)C2 [amantadine] | exerted no effect; also recorded: did not, however, influence
2 | CC(N)C12CC3CC(CC(C3)C1)C2 (centres unmarked) [rimantadine] | exerted no effect
